Reference: ChEMBL document CHEMBL3885881, “DrugMatrix”

Organism: Rattus norvegicus
Assay: DrugMatrix - Regimen: Daily Repeat
Assay type: toxicity, organism-based, Sprague-Dawley
Set-up: regimen Daily Repeat, gender Male, age 6-8 weeks
Details: in vivo, po, route oral GAVAGE, vehicle .5 % CMC; for BASOPHIL / EOSINOPHIL / ERYTHROCYTE COUNT / HEMATOCRIT / HEMOGLOBIN / LEUKOCYTE COUNT / LYMPHOCYTE / MEAN CORPUSCULAR HEMOGLOBIN / MEAN CORPUSCULAR HEMOGLOBIN CONCENTRATION / MEAN CORPUSCULAR VOLUME / MONOCYTE / NEUTROPHIL / PLATELET COUNT: tissue Blood
[1] = 0 mg/kg, […], tissue Plasma, dose level Control, time 28 day
[2] = 30 mg/kg, 72 h, dose level M1, time 3 day
[3] = 30 mg/kg, 72 h, tissue Plasma, dose level M1, time 3 day
[4] = 30 mg/kg, 120 h, dose level M1, time 5 day
[5] = 30 mg/kg, 120 h, tissue Plasma, dose level M1, time 5 day
[6] = 300 mg/kg, 72 h, dose level High, time 3 day
[7] = 300 mg/kg, 72 h, tissue Plasma, dose level High, time 3 day
[8] = 300 mg/kg, 120 h, dose level High, time 5 day
[9] = 300 mg/kg, 120 h, tissue Plasma, dose level High, time 5 day

Question: Cc1ccc2cc3c(ccc4ccccc43)c3c2c1CC3 [3-METHYLCHOLANTHRENE] was tested. Which CHOLESTEROL [1] did it give?
Answer: 59.6 mg/dL

Question: And the “CREATINE PHOSPHOKINASE” value [1]?
Answer: 121.8 u/L

Question: And the CREATININE [1]?
Answer: 0.6 mg/dL

Question: And the GLUCOSE [1]?
Answer: 143 mg/dL

Question: What about the “LACTATE DEHYDROGENASE” value [1] of the same compound?
Answer: 87.8 u/L

Question: What about the LIPASE [1] of the same compound?
Answer: 17.4 u/L

Question: What about the PHOSPHORUS [1] of the same compound?
Answer: 8.68 mg/dL

Question: What about the POTASSIUM [1] of the same compound?
Answer: 6.02 MEQ/L

Question: What about the SODIUM [1] of the same compound?
Answer: 152.8 MEQ/L

Question: And the “TOTAL BILIRUBIN” value [1]?
Answer: 0.26 mg/dL

Question: And the “TOTAL PROTEIN” value [1]?
Answer: 6.92 G/DL

Question: What about the “URIC ACID” value [1] of the same compound?
Answer: 0.52 mg/dL

Question: And the BASOPHIL [2]?
Answer: 0.4%

Question: And the EOSINOPHIL [2]?
Answer: 0.4%

Question: What about the “ERYTHROCYTE COUNT” value [2] of the same compound?
Answer: 6.58 x10E6/uL

Question: What about the HEMATOCRIT [2] of the same compound?
Answer: 41.43%

Question: What about the HEMOGLOBIN [2] of the same compound?
Answer: 13.13 G/DL

Question: And the “LEUKOCYTE COUNT” value [2]?
Answer: 12.08 x10E3/uL

Question: What about the LYMPHOCYTE [2] of the same compound?
Answer: 83.17%

Question: And the “MEAN CORPUSCULAR HEMOGLOBIN” value [2]?
Answer: 20 pg

Question: And the “MEAN CORPUSCULAR HEMOGLOBIN CONCENTRATION” value [2]?
Answer: 31.7 G/DL

Question: What about the “MEAN CORPUSCULAR VOLUME” value [2] of the same compound?
Answer: 63.07 fL

Question: What about the MONOCYTE [2] of the same compound?
Answer: 2.4%

Question: What about the NEUTROPHIL [2] of the same compound?
Answer: 12.5%

Question: And the “PLATELET COUNT” value [2]?
Answer: 1282.33 x10E3/uL

Question: What about the “ALANINE AMINOTRANSFERASE” value [3] of the same compound?
Answer: 39.67 u/L

Question: What about the ALBUMIN [3] of the same compound?
Answer: 3.57 G/DL

Question: What about the “ALKALINE PHOSPHATASE” value [3] of the same compound?
Answer: 304 u/L

Question: What about the “ASPARTATE AMINOTRANSFERASE” value [3] of the same compound?
Answer: 67.67 u/L

Question: And the “BLOOD UREA NITROGEN” value [3]?
Answer: 12.67 mg/dL

Question: And the CHLORIDE [3]?
Answer: 104 MEQ/L

Question: And the CHOLESTEROL [3]?
Answer: 97.67 mg/dL

Question: And the “CREATINE PHOSPHOKINASE” value [3]?
Answer: 181.67 u/L

Question: And the CREATININE [3]?
Answer: 0.37 mg/dL

Question: And the GLUCOSE [3]?
Answer: 174.33 mg/dL

Question: And the PHOSPHORUS [3]?
Answer: 12.23 mg/dL

Question: What about the POTASSIUM [3] of the same compound?
Answer: 6.87 MEQ/L

Question: What about the SODIUM [3] of the same compound?
Answer: 147.67 MEQ/L

Question: What about the “TOTAL BILIRUBIN” value [3] of the same compound?
Answer: 0.43 mg/dL

Question: What about the “TOTAL PROTEIN” value [3] of the same compound?
Answer: 6.03 G/DL

Question: What about the BASOPHIL [4] of the same compound?
Answer: 0.43%

Question: And the EOSINOPHIL [4]?
Answer: 0.27%

Question: What about the “ERYTHROCYTE COUNT” value [4] of the same compound?
Answer: 6.57 x10E6/uL

Question: What about the HEMATOCRIT [4] of the same compound?
Answer: 43.27%

Question: And the HEMOGLOBIN [4]?
Answer: 13.43 G/DL

Question: And the “LEUKOCYTE COUNT” value [4]?
Answer: 10.87 x10E3/uL

Question: And the LYMPHOCYTE [4]?
Answer: 82.07%

Question: And the “MEAN CORPUSCULAR HEMOGLOBIN” value [4]?
Answer: 20.43 pg

Question: What about the “MEAN CORPUSCULAR HEMOGLOBIN CONCENTRATION” value [4] of the same compound?
Answer: 31.07 G/DL

Question: What about the “MEAN CORPUSCULAR VOLUME” value [4] of the same compound?
Answer: 65.87 fL

Question: What about the MONOCYTE [4] of the same compound?
Answer: 2.43%

Question: What about the NEUTROPHIL [4] of the same compound?
Answer: 13.57%

Question: What about the “PLATELET COUNT” value [4] of the same compound?
Answer: 1575.33 x10E3/uL

Question: And the “ALANINE AMINOTRANSFERASE” value [5]?
Answer: 38.33 u/L

Question: What about the ALBUMIN [5] of the same compound?
Answer: 3.47 G/DL

Question: And the “ALKALINE PHOSPHATASE” value [5]?
Answer: 335.67 u/L

Question: And the “ASPARTATE AMINOTRANSFERASE” value [5]?
Answer: 70.67 u/L

Question: What about the “BLOOD UREA NITROGEN” value [5] of the same compound?
Answer: 15 mg/dL

Question: And the CHLORIDE [5]?
Answer: 103.33 MEQ/L

Question: What about the CHOLESTEROL [5] of the same compound?
Answer: 82 mg/dL

Question: And the “CREATINE PHOSPHOKINASE” value [5]?
Answer: 189.33 u/L

Question: What about the CREATININE [5] of the same compound?
Answer: 0.4 mg/dL

Question: What about the GLUCOSE [5] of the same compound?
Answer: 182 mg/dL

Question: What about the PHOSPHORUS [5] of the same compound?
Answer: 12.6 mg/dL

Question: And the POTASSIUM [5]?
Answer: 6.87 MEQ/L

Question: And the SODIUM [5]?
Answer: 148.33 MEQ/L

Question: What about the “TOTAL BILIRUBIN” value [5] of the same compound?
Answer: 0.4 mg/dL

Question: And the “TOTAL PROTEIN” value [5]?
Answer: 5.77 G/DL

Question: What about the BASOPHIL [6] of the same compound?
Answer: 0.4%

Question: And the EOSINOPHIL [6]?
Answer: 0.37%

Question: What about the “ERYTHROCYTE COUNT” value [6] of the same compound?
Answer: 6.99 x10E6/uL

Question: And the HEMATOCRIT [6]?
Answer: 43.53%

Question: And the HEMOGLOBIN [6]?
Answer: 13.6 G/DL

Question: And the “LEUKOCYTE COUNT” value [6]?
Answer: 10.06 x10E3/uL

Question: And the LYMPHOCYTE [6]?
Answer: 78.97%

Question: What about the “MEAN CORPUSCULAR HEMOGLOBIN” value [6] of the same compound?
Answer: 19.47 pg

Question: And the “MEAN CORPUSCULAR HEMOGLOBIN CONCENTRATION” value [6]?
Answer: 31.3 G/DL

Question: And the “MEAN CORPUSCULAR VOLUME” value [6]?
Answer: 62.23 fL

Question: And the MONOCYTE [6]?
Answer: 2.83%

Question: What about the NEUTROPHIL [6] of the same compound?
Answer: 15.97%

Question: And the “PLATELET COUNT” value [6]?
Answer: 1201 x10E3/uL

Question: What about the “ALANINE AMINOTRANSFERASE” value [7] of the same compound?
Answer: 33.33 u/L

Question: And the ALBUMIN [7]?
Answer: 3.53 G/DL

Question: What about the “ALKALINE PHOSPHATASE” value [7] of the same compound?
Answer: 316 u/L

Question: And the “ASPARTATE AMINOTRANSFERASE” value [7]?
Answer: 60 u/L

Question: What about the “BLOOD UREA NITROGEN” value [7] of the same compound?
Answer: 12.67 mg/dL

Question: And the CHLORIDE [7]?
Answer: 103.67 MEQ/L

Question: What about the CHOLESTEROL [7] of the same compound?
Answer: 97.67 mg/dL

Question: And the “CREATINE PHOSPHOKINASE” value [7]?
Answer: 153 u/L

Question: What about the CREATININE [7] of the same compound?
Answer: 0.43 mg/dL

Question: And the GLUCOSE [7]?
Answer: 185.67 mg/dL

Question: What about the PHOSPHORUS [7] of the same compound?
Answer: 12.47 mg/dL

Question: And the POTASSIUM [7]?
Answer: 6.9 MEQ/L

Question: And the SODIUM [7]?
Answer: 147 MEQ/L

Question: What about the “TOTAL BILIRUBIN” value [7] of the same compound?
Answer: 0.5 mg/dL

Question: And the “TOTAL PROTEIN” value [7]?
Answer: 5.83 G/DL

Question: What about the BASOPHIL [8] of the same compound?
Answer: 0.55%

Question: And the EOSINOPHIL [8]?
Answer: 0.15%

Question: And the “ERYTHROCYTE COUNT” value [8]?
Answer: 6.96 x10E6/uL

Question: And the HEMATOCRIT [8]?
Answer: 44.15%

Question: What about the HEMOGLOBIN [8] of the same compound?
Answer: 14.05 G/DL

Question: What about the “LEUKOCYTE COUNT” value [8] of the same compound?
Answer: 9.75 x10E3/uL

Question: And the LYMPHOCYTE [8]?
Answer: 87.2%

Question: What about the “MEAN CORPUSCULAR HEMOGLOBIN” value [8] of the same compound?
Answer: 20.2 pg

Question: And the “MEAN CORPUSCULAR HEMOGLOBIN CONCENTRATION” value [8]?
Answer: 31.8 G/DL

Question: And the “MEAN CORPUSCULAR VOLUME” value [8]?
Answer: 63.45 fL

Question: And the MONOCYTE [8]?
Answer: 2.05%

Question: What about the NEUTROPHIL [8] of the same compound?
Answer: 8.8%

Question: What about the “PLATELET COUNT” value [8] of the same compound?
Answer: 1398 x10E3/uL

Question: What about the “ALANINE AMINOTRANSFERASE” value [9] of the same compound?
Answer: 37 u/L

Question: What about the ALBUMIN [9] of the same compound?
Answer: 3.63 G/DL

Question: And the “ALKALINE PHOSPHATASE” value [9]?
Answer: 280 u/L

Question: And the “ASPARTATE AMINOTRANSFERASE” value [9]?
Answer: 66.33 u/L

Question: What about the “BLOOD UREA NITROGEN” value [9] of the same compound?
Answer: 14.67 mg/dL

Question: And the CHLORIDE [9]?
Answer: 103 MEQ/L

Question: What about the CHOLESTEROL [9] of the same compound?
Answer: 112 mg/dL

Question: What about the “CREATINE PHOSPHOKINASE” value [9] of the same compound?
Answer: 163.67 u/L

Question: What about the CREATININE [9] of the same compound?
Answer: 0.4 mg/dL

Question: And the GLUCOSE [9]?
Answer: 178.33 mg/dL

Question: What about the PHOSPHORUS [9] of the same compound?
Answer: 13.37 mg/dL

Question: What about the POTASSIUM [9] of the same compound?
Answer: 7.9 MEQ/L

Question: What about the SODIUM [9] of the same compound?
Answer: 147.33 MEQ/L

Question: And the “TOTAL BILIRUBIN” value [9]?
Answer: 0.4 mg/dL

Question: And the “TOTAL PROTEIN” value [9]?
Answer: 6.13 G/DL
